Several values for one entry are separate records, joined by “and”; a condition that tells them apart may be missing. Equal entries are not always repeated.
System: 855422-203-R-J1-PDC complex spheroid viability
Experiment: Anticancer human tumor 855422-203-R-J1-PDC patient-derived bladder carcinoma cell line growth inhibition [POLQ]
Settings: for viability, T/C: stronger effect = lower value; for IC50: curve of compound
Experimental: Multicellular complex tumor spheroid response to Polymerase (POL) inhibitors (novobiocin, ART-558, RP6685) in combination with a variety of drugs and investigational agents in selected tumor cell lines
The POL inhibitors (novobiocin, ART-558, and RP6685) were evaluated both individually and in combination with standard of care and investigational anticancer small molecules within a complex spheroid model of solid tumors. . Complex spheroids include a stromal component modeled by human endothelial cells (HUVEC) and fibroblasts modeled by human mesenchymal stem cells (MSCs). The concentration ranges selected for each drug and investigational agent were based upon clinically achievable concentrations if the clinical Cmax of the agent was known.
Compounds. The drugs and investigational agents: novobiocin (NSC847541), ART-558 (NSC835418), RP-6685 (NSC848927), peposertib (NSC802822), ceralasertib (NSC780249), elimusertib (NSC800525), camonsertib (NSC841442), AZD-1390 (NSC803789), olaparib (NSC753686), talazoparib (NSC767125), rucaparib (NSC756644), sotorasib (NSC818433), MRTX-1133 (NSC836407), SN-38 (NSC673596), topotecan (NSC609699), epotoside (NSC141540), doxorubicin (NSC123127), gemcitabine (NSC613327), 5-fluorouracil (NSC19893), paclitaxel (NSC125973), vemurafenib (NSC761431), MSA-2 (NSC828583), SN-011 (NSC837082), adavosertib (NSC754352), prexasertib (NSC758257), carboplatin (NSC241240) and oxaliplatin (NSC266046), were obtained from the National Cancer Institute (NCI) Developmental Therapeutics Program Chemical Repository (21). The FDA-approved anticancer drug set is available from the Developmental Therapeutics Program at https://dtp.cancer.gov/organization/dscb/obtaining/. […] The stock solutions were prepared in dimethyl sulfoxide (DMSO, Sigma-Aldrich, St. Louis, MO, cat. D2650), except for the platinum compounds which were prepared in saline (Quality Biological, Gaithersburg, MD, cat. 114-055-101), at 800-fold the tested concentration and stored at -70 degrees C prior to their use. All drugs and investigational agents were tested over a range starting from a high concentration at or near the clinical Cmax and decreasing in half-log increments. If the clinical Cmax for an agent had not been determined, the highest concentration tested was 10 microM, except for SN-38, which was tested at a high concentration of 1 microM.
Cell Culture. All cells were maintained in an incubator at 37 degrees C and 5% CO2 with 95% humidity. The PDC lines were cultured according to standard operating procedures established by the NCI PDMR (https://pdmr.cancer.gov). Table 3 of the manuscript, lists the cell lines along with the number of the three cell types plated to form the mct-spheroids and media for tumor cell growth. After thawing, all PDC lines, except 997537-175-T-J1-PDC and 415267-285-R-J2-PDC, were cultured in Matrigel-coated flasks prepared with a working solution of 1X Ham's F-12 nutrient mix, without supplementation (Thermo Fisher Scientific, cat. 11765054), 100 U/mL penicillin-streptomycin (Thermo Fisher Scientific, cat. 15140122), and 2.5% Matrigel (Corning Inc., Corning, NY, cat. 354248) for the first three passages. The two PDC lines 997537-175-T-J1-PDC and 415267-285-R-J2-PDC were cultured on uncoated flasks. The 857933-349-R-J2-PDC line was cultured in 6C/Colon 1B media containing advanced DMEM/F-12 (Thermo Fisher Scientific, cat. 12634028), 10 mM HEPES (Thermo Fisher Scientific, cat. 15630080), 1X GlutaMAX supplement (Thermo Fisher Scientific, cat. 35050061), 0.1 mg/mL primocin (InvivoGen, San Diego, CA, cat. ant-pm-2), 10% defined fetal bovine serum, heat inactivated (HyClone Laboratories Inc., Logan, UT, cat. SH30070.03HI), 50% L-WRN conditioned media (ATCC, cat. CRL-3276), 1.25 mM N-Acetyl-L-cysteine (Sigma-Aldrich, cat. A9165), 10 mM nicotinamide (Sigma-Aldrich, cat. N0636), 1X B-27 supplement (Thermo Fisher Scientific, cat. 17504044), 1X N-2 supplement (Thermo Fisher Scientific, cat. […]
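Further: spheroids exposed to compounds for seven days before readout.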

Row | SMILES | viability, T/C (compound 0.0316 µM) | viability, T/C (compound 0.1 µM) | viability, T/C (compound 0.316 µM) | viability, T/C (compound 1 µM) | viability, T/C (compound 3.16 µM) | viability, T/C (compound 10 µM) | IC50
1 | C#Cc1c(F)ccc2cc(O)cc(-c3ncc4c(N5CC6CCC(C5)N6)nc(OCC56CCCN5CC(F)C6)nc4c3F)c12 (stereo unspecified) | 120% and 105% and 97.1% | 106% and 100% and 107% | 87.3% and 94.5% and 105% | 98.4% (2×) and 94.2% | 97.4% and 109% and 119% | 104% and 98% and 121% | > 10 µM
2 | C=CC(=O)N1CCN(c2nc(=O)n(-c3c(C)ccnc3C(C)C)c3nc(-c4c(O)cccc4F)c(F)cc23)C(C)C1 (stereo unspecified) | 106% and 101% and 103% | 89% and 126% and 115% | 117% and 111% and 114% | 101% and 130% and 102% | 129% and 144% and 132% | 127% and 135% and 113% | > 10 µM
3 | CC(C)n1c(=O)n(C)c2cnc3cc(F)c(-c4ccc(OCCCN5CCCCC5)nc4)cc3c21 | 100% and 106% and 98.1% | 96.9% and 119% and 91.5% | 103% and 111% and 98.1% | 97.5% and 101% and 93% | 83.8% and 95.1% and 86.4% | 56.6% and 97.9% and 74.8% | > 10 µM
4 | CC1COCCN1c1cc(-c2ccnn2C)c2ccnc(-c3ccn[nH]3)c2n1 (stereo unspecified) | 99.3% and 108% and 116% | 70.3% and 81.8% and 110% | 23.4% and 22.9% and 30.8% | 11.2% and 11% and 16.2% | 8.42% and 8.52% and 10.7% | 6.55% and 7.74% and 10.3% | 0.165 µM and 0.186 µM and 0.239 µM
5 | CC1COCCN1c1cc(C2(O)CC3CCC(C2)O3)c2cnn(-c3ccn[nH]3)c2n1 (stereo unspecified) | 98.5% and 101% and 111% | 49.5% and 43.5% and 74.9% | 15.2% and 14.2% and 20.3% | 10.6% and 9.31% and 13.1% | 6.4% and 7.44% and 9.6% | 3.63% and 5.73% and 6.18% | 0.0982 µM and 0.0876 µM and 0.17 µM
6 | CC1COCCN1c1cc(C2(S(C)(=N)=O)CC2)nc(-c2ccnc3[nH]ccc23)n1 (stereo unspecified) | 97.2% and 103% and 97.7% | 101% (2×) and 94.1% | 109% and 115% and 116% | 97.7% and 154% and 117% | 37.8% and 46% and 35.8% | 9.87% and 13% and 14.6% | 2.5 µM and 2.96 µM and 2.52 µM
7 | CCc1cc2c(N3CCc4c(cc(Cn5ccnc5)cc4-c4cn(C)nc4C(F)(F)F)C3=O)cc(C)nc2c(OC)n1 | 89.8% and 99.4% and 115% | 81.6% and 103% and 101% | 74.5% and 132% and 120% | 62.8% and 85.8% and 94.5% | 49.1% and 62% and 75.6% | 26.1% and 50.8% and 38.6% | 2.62 µM and > 10 µM and 6.96 µM
8 | CCc1cc2c(N3CCc4c(cc(Cn5ccnc5)cc4-c4cn(C)nc4C(F)(F)F)C3=O)ccnc2c(OC)n1 | 83.3% and 126% and 119% | 84.9% and 133% and 116% | 73.8% and 136% and 139% | 74.3% and 100% and 104% | 47.2% and 73.1% and 78.9% | 32.6% and 47.8% and 46.6% | 2.87 µM and 9.66 µM and 8.96 µM
